{
  "source": "patent US6627772B2",
  "about": "“Preparation of N-[2-(carboxymethoxy) ethyl]-N-(carboxymethyl) glycine” (The Dow Chemical Company, priority 1999, dated 2003)",
  "key": {"[1]": {"test": "Copper titration with Murexide indicator", "assay_type": "physicochemical", "settings": "2 g (0.009 mmol) in 100 mL water, 0.01 molar copper chloride, approximately pH 8, sodium acetate buffer", "description": "Copper titration value is used to measure the extent of biodegradation of the chelating agents during the procedure. Titration is performed using ammonium purpurate (indicator for complexometric titration, commercially available from Aldrich Chemical Co., Inc. under the trade designation Murexide) at approximately pH 8, and using sodium acetate as buffer. Titration of […] N-[2-(carboxymethoxy)ethyl]-N-(carboxymethyl)glycine (0.009 mmol) in 100 mL water with 0.01 molar copper chloride gives an endpoint of 0.99 mL, representing a 1:1 chelation of copper. Analysis is performed daily for a period of 28 days."}, "[2]": {"test": "Calcium oxalate titration (calcium chelation capacity)", "assay_type": "physicochemical", "description": "The applicability of N-[2-(carboxymethoxy)ethyl]-N-(carboxymethyl)glycine for use in hard surface cleaners, is measured by the calcium oxalate titration.\nFor titration with calcium oxalate, N-[2-(carboxymethoxy)ethyl]-N-(carboxymethyl)glycine (between 1 to 2 millimoles) is placed in a 60 mL beaker. After the addition of 30 mL deionized water and 5 mL of a 3% ammonium oxalate solution, the pH is slowly brought to about 10 by the addition of 20% sodium hydroxide while stirring. The pH is then adjusted to about 11.6 with sodium hydroxide and the solution is titrated with 0.1 M CaCl2 to the first permanent turbidity. The chelation valve is then determined from the mL of titrant used based on the following calculation.\nChelation Value=(mL titrant used×molarity titrant)×100 mg CaCO3 per mmole÷sample wt. in grams×activity of sample (as acid form)\nThe chelation value is the mg of CaCO3 that can be chelated by one active gram of a chelant, such as N-[2-(carboxymethoxy)ethyl]-N-(carboxymethyl)glycine (IX).\nThe turbidity produced in the oxalate titration is due to the formation of calcium oxalate. The results for the titration of N-[2-(carboxymethoxy)ethyl]-N-(carboxymethyl)glycine in the presence of oxalate is compared with iminodiacetic acid (IDA) and given in Table II below."}},
  "data": [
    {"smiles": "O=C(O)COCCN(CC(=O)O)CC(=O)O", "note": "[(IX), N-[2-(carboxymethoxy)ethyl]-N-(carboxymethyl)glycine]", "values": [
      {"measurement": "Copper titration endpoint", "setting": "[1]", "value": 0.99, "unit": "mL"},
      {"measurement": "Chelation value compared with IDA (in words)", "setting": "[2]", "value": "far superior to IDA"},
      {"measurement": "Chelation Value", "setting": "[2]; pH about 11.6, 0.1 M CaCl2 to first permanent turbidity", "value": "423 mg of CaCO3 per active gram of"}
    ]}
  ]
}
